Measured values taken from patent publication EP0472392A2, “Optically active triazole derivatives and compositions” (priority 1990, dated 1992).
In brackets after ≈: the same amount, converted by molar mass. Entries after “also recorded” stand apart in the source; their conditions may differ. Like-named read-outs stand apart in the source and are kept apart here.

How the values were obtained:
[1] = Variation in the plasma concentrations in monkeys of the toxicity study; format: in vivo; conditions: repeated daily oral dosing for 28 days
[2] = tested on: Candida albicans IFM 40009; assay: Measurement of Minimum Inhibitory Concentration (MIC), agar dilution; format: cell-based; conditions: 30°C, 48 hours
Description: (§1) Measurement of Minimum Inhibitory Concentration (MIC)
(§2) Yeast-type fungi were cultured in Sabouraud dextrose broth (SDB, Difco) at 30°C for 24 hours, and 10⁵ cell/ml suspension for inoculation were prepared by diluting this with sterile physiological saline. In the case of filamentous fungi, 3 to 5 ml sterile physiological saline containing 0.05% (w/v) Tween 80 were added to mature Sabouraud dextrose agar culture medium (SDA, Difco) slant cultures (cultured for 2 to 3 weeks) in which conidia had formed abundantly, and the conidia were separated using an inoculating loop (Nunc Inc.). The conidial suspensions obtained were collected using a sterile pipette, and, after filtration through a double layer of sterile gauze to remove mycelial aggregates and agar fragments, were made into suspensions for inoculation by dilution of 10⁵ conidia/ml with sterile physiological saline. Meanwhile, as regards the drug-containing agar plates, a drug concentration of 0.005 to 10 mg/ml was prepared using dimethyl sulfoxide (DMSO, Wako Junyaku), and, by adding 99 parts of SDA to 1 part of this drug solution, two-fold serial dilution agar media of final dilutions 0.05 to 100 µg/ml were prepared. The fungal suspensions for inoculation prepared by the above method were inoculated onto these agar plates using a MIT-P microplanter (Sakuma Seisakusho).

[3] = tested on: Candida glabrata TIMM 1064; assay: as above; format: cell-based; conditions: SDA agar plates, 30°C
Description: as §1, §2

[4] = tested on: Trichophyton mentagrophytes TIMM 1188; assay: as above; format: cell-based; conditions: SDA agar plates, 30°C
Description: as §1, §2

[5] = tested on: Aspergillus fumigatus IFM 4942; assay: as above; format: cell-based; conditions: SDA agar plates, 30°C
Description: as §1, §2

[6] = tested on: Cryptococcus neoformans TIMM 0362; assay: as above; format: cell-based; conditions: SDA agar plates, 30°C
Description: as §1, §2

[7] = tested on: Candida tropicalis TIMM 0313; assay: as above; format: cell-based; conditions: SDA agar plates, 30°C
Description: as §1, §2

[8] = Repeated oral toxicity testing in monkeys; format: in vivo; conditions: for safe dosage: under these test conditions
Description: Compound A was given orally to monkeys every day for 28 days at dosages of 1, 3, 10 and 30 mg/kg/day, and its toxicity was studied.
As a result, at dosages of 3 mg/kg/day or more, a decrease in serum cortisol, hyperplasia and increase in lipid droplets in the zona fasciculata in the adrenal cortex, and atrophy of the seminiferous tubules of the testes were observed; at the dosage of 30 mg/kg/day, prolongation of the QTc interval in the electrocardiogram (QT period corrected for heart rate) was also observed. Under these test conditions, it was considered that 1 mg/kg/day was a safe dosage.
Compound (+)-I was given orally to monkeys every day for 28 days at dosages of 1, 3, 10 and 30 mg/kg/day, and its toxicity studied.
Under these test conditions, it was considered that 30 mg/kg/day was safe dosage.

[9] = tested on: Candida albicans IFM 40009; assay: Effectiveness in treatment of in vivo infections (survival of infected mice); conditions: IFM40009, Candida albicans IFM 40009 i.v. infection, male ICR mice, survival after 2 weeks
Description: (§3) Measurement of Effectiveness in Treatment of In vivo Infections Using 10 animals per group, male ICR mice (body weight 18 to 20 g) were infected by intravenous injection of the test fungi as an aqueous suspension. The test compounds were given orally once 1 hour after infection, or once daily for 5 days starting from 1 hour after infection. After 2 weeks, the number of animals surviving was counted, and the dosage at which 50% of the animals survive (ED₅₀: mg/kg) was calculated using the Litchfield-Wilcoxon method.

[10] = tested on: Aspergillus fumigatus IFM 4942; assay: as above; conditions: IFM4942; Aspergillus fumigatus IFM 4942 i.v. infection, male ICR mice; dosed orally 5x (once daily for 5 days); survival after 2 weeks
Description: as §3

[11] = tested on: Cryptococcus neoformans TIMM 0362; assay: as above; conditions: TIMM0362; Cryptococcus neoformans TIMM 0362 i.v. infection, male ICR mice; dosed orally 1x (1 hour after infection); survival after 2 weeks
Description: as §3

[12] = IFM40009, SDA agar plates, read-out: MIC
[13] = Nakaseomyces glabratus, TIMM1064, 48 h, read-out: MIC
[14] = Trichophyton mentagrophytes, TIMM1188, 48 h, read-out: MIC
[15] = Aspergillus fumigatus, IFM4942, 48 h, read-out: MIC
[16] = Cryptococcus neoformans, TIMM0362, 48 h, read-out: MIC
[17] = Candida tropicalis, TIMM0313, 48 h, read-out: MIC
[18] = every day for 28 days, 1, 3, 10 and 30 mg/kg/day
[19] = dosed orally 5x (once daily for 5 days)
[20] = every day for 28 days, up to 30 mg/kg/day
[21] = dosed orally 1x (1 hour after infection)

In the case of `OC(Cn1cncn1)(Cn1cnc(/C=C/c2ccc(OCC(F)(F)C(F)F)cc2)n1)c1ccc(F)cc1F` (racemic) [compound A, (±)-2-(2,4-difluorophenyl)-1-[3-[(E)-4-(2,2,3,3-tetrafluoropropoxy)styryl]-1H-1,2,4-triazol-1-yl]-3-(1H-1,2,4-triazol-1-yl)propan-2-ol], the “variation in the plasma concentrations with time (accumulation)” value [1] is reported as “accumulates; also recorded: increased day-by day”, the MIC [2, 12] is reported as 12.5 µg/mL (≈ 23.2 µM) and the MIC [3, 13] is reported as 1.56 µg/mL (≈ 2.9 µM). For the same molecule, the MIC [4, 14] was 0.39 µg/mL (≈ 0.724 µM), the MIC [5, 15] was 12.5 µg/mL (≈ 23.2 µM) and the MIC [6, 16] was 0.78 µg/mL (≈ 1.45 µM). For the same molecule, the MIC [7, 17] was 12.5 µg/mL (≈ 23.2 µM), the “dosage at which a decrease in serum cortisol was observed” value [8, 18] was ≥ 3 mg/kg/day and the “dosage at which atrophy of the seminiferous tubules of the testes was observed” value [8, 18] was ≥ 3 mg/kg/day. For the same molecule, the “dosage at which hyperplasia and increase in lipid droplets in the zona fasciculata in the adrenal cortex was observed” value ([8]; every day for 28 days, 1, 3, 10 and 30 mg/kg/day, only slight for compound (+)-I) was ≥ 3 mg/kg/day, the safe dosage ([8]; every day for 28 days) was 1 mg/kg/day and the ED50 [9, 19] was 1.7 mg/kg. For the same molecule, the ED50 [10] was 53.6 mg/kg and the ED50 [11] was 43.5 mg/kg.

With `OC(Cn1cncn1)(Cn1cnc(/C=C/c2ccc(OCC(F)(F)C(F)F)cc2)n1)c1ccc(F)cc1F` (single isomer, unassigned; (+)) [Compound (+)-I, (+)-2-(2,4-difluorophenyl)-1-[3-[(E)-4-(2,2,3,3-tetrafluoropropoxy)styryl]-1H-1,2,4-triazol-1-yl]-3-(1H-1,2,4-triazol-1-yl)propan-2-ol] the “variation in the plasma concentrations with time (accumulation)” value [1] was “no day-by day increase in the plasma concentrations; also recorded: does not display accumulation”, the MIC [2, 12] was 12.5 µg/mL (≈ 23.2 µM) and the MIC ([3]; 48 hours, listed as COMP. (+)I) was 0.78 µg/mL (≈ 1.45 µM). The MIC ([4]; 48 hours, listed as COMP. (+)I) was 0.10 µg/mL (≈ 0.186 µM), the MIC ([5]; 48 hours, listed as COMP. (+)I) was 6.25 µg/mL (≈ 11.6 µM) and the MIC ([6]; 48 hours, listed as COMP. (+)I) was 0.39 µg/mL (≈ 0.724 µM). For the same molecule, the MIC ([7]; 48 hours, listed as COMP. (+)I) was 12.5 µg/mL (≈ 23.2 µM), the “testicular toxicity (atrophy of the seminiferous tubules), finding in words” value ([8]; even at a dosage of 30 mg/kg/day) was “did not display” and the safe dosage ([8]; every day for 28 days) was 30 mg/kg/day. The “electrocardiogram / cardiotoxicity (prolongation of the QTc interval), finding in words” value [8, 20] was “no abnormalities in the electrocardiogram were seen; also recorded: did not display cardiotoxicity (prolongation of the QTc interval)”, the “serum cortisol level (finding in words)” value [8, 20] was “no decrease in the serum cortisol level; also recorded: did not display” and the ED50 [9, 21] was 2.6 mg/kg. It also gave an ED50 [9, 19] of 1 mg/kg, an ED50 [10] of 39.8 mg/kg and an ED50 [11] of 19.7 mg/kg.

With `OC(Cn1cncn1)(Cn1cnc(/C=C/c2ccc(OCC(F)(F)C(F)F)cc2)n1)c1ccc(F)cc1F` (single isomer, unassigned; (-)) [Compound (-)-I, (-)-2-(2,4-difluorophenyl)-1-[3-[(E)-4-(2,2,3,3-tetrafluoropropoxy)styryl]-1H-1,2,4-triazol-1-yl]-3-(1H-1,2,4-triazol-1-yl)propan-2-ol] the MIC ([2]; SDA agar plates) was 12.5 µg/mL (≈ 23.2 µM), the MIC ([3]; 48 hours, listed as COMP. (-)I) was >100 µg/mL and the MIC ([4]; 48 hours, listed as COMP. (-)I) was 50 µg/mL (≈ 92.9 µM). The MIC ([5]; 48 hours, listed as COMP. (-)I) was >100 µg/mL, the MIC ([6]; 48 hours, listed as COMP. (-)I) was >100 µg/mL and the MIC ([7]; 48 hours, listed as COMP. (-)I) was >100 µg/mL.

With `OC(Cn1cncn1)(Cn1cncn1)c1ccc(F)cc1F` [FLUCONAZOLE, 2-(2,4-difluorophenyl)-1,3-bis(1H-1,2,4-triazol-1-yl)-propan-2-ol] the MIC [2, 12] was > 100 µg/mL, the MIC [3, 13] was 100 µg/mL (≈ 327 µM) and the MIC [4, 14] was 25 µg/mL (≈ 81.6 µM). For the same molecule, the MIC [5, 15] was > 100 µg/mL, the MIC [6, 16] was 50 µg/mL (≈ 163 µM) and the MIC [7, 17] was > 100 µg/mL. The ED50 [9, 21] was > 30 mg/kg, the ED50 [9, 19] was 3.6 mg/kg and the ED50 [10] was 57.9 mg/kg. The ED50 [11] was > 100 mg/kg.
